Like-named read-outs stand apart in the source and are kept apart here. One block for each molecule: values may come before it.
Experiments:
[1] = Determination of the log P values by HPLC (formic acid method); assay type: physicochemical; details: reversed-phase column (C 18), acidic range (pH 3.4), 55° C.; for chromatographic logP: reversed-phase HPLC column (C 18)
Experimental: 1) Description of Method for Determination of the Log P Values (Formic Acid Method)
Eluents for determination in the acidic range (pH 3.4):
Eluent A: acetonitrile+1 ml of formic acid/liter. Eluent B: water+0.9 ml of formic acid/liter.
The lambda max values were determined in the maxima of the chromatographic signals using the UV spectra from 200 nm to 400 nm.

Lucilia cuprina larvae = assay: Lucilia cuprina test (LUCICU); assay type: in vivo; details: application rate 100 ppm; larvae on treated horse meat; after 2 days
Experimental: Lucilia cuprina Test (LUCICU)
(§1) Solvent: dimethyl sulphoxide
To produce a suitable preparation of active compound, 10 mg of active compound are mixed with 0.5 ml of dimethyl sulphoxide, and the concentrate is diluted with water to the desired concentration.
Vessels containing horse meat treated with the active compound preparation of the desired concentration are populated with about 20 Lucilia cuprina larvae.
After 2 days, the kill in % is determined 100% means that all of the larvae have been killed; 0% means that none of the larvae have been killed.

Phaedon cochleariae = Phaedon cochleariae spray test (PHAECO); assay type: in vivo; details: foliar, 168 h, application rate 500 g/ha, larvae on Chinese cabbage leaf discs, after 7 days, read-out: efficacy
Experimental: Phaedon cochleariae Spray Test (PHAECO)
(§2) Solvents: 78.0 parts by weight of acetone • • 1.5 parts by weight of dimethylformamide
(§3) Emulsifier: 0.5 part by weight of alkylaryl polyglycol ether
(§4) To produce a suitable preparation of active compound, 1 part by weight of active compound is mixed with the stated amounts of solvents and emulsifier, and the concentrate is diluted with emulsifier-containing water to the desired concentration.
After 7 days, the efficacy in % is determined. 100% means that all of the beetle larvae have been killed; 0% means that none of the beetle larvae have been killed.

Myzus persicae = Myzus persicae spray test (MYZUPE); assay type: in vivo; details: Chinese cabbage leaf discs, after 6 days
Experimental: Myzus persicae Spray Test (MYZUPE)
Solvents: 78 parts by weight of acetone • • 1.5 parts by weight of dimethylformamide
as §3, §4
Discs of Chinese cabbage leaves (Brassica pekinensis) infested by all stages of the green peach aphid (Myzus persicae) are sprayed with an active compound preparation of the desired concentration.
After 6 days, the efficacy in % is determined 100% here means that all of the aphids have been killed; 0% means that no aphids have been killed.

Cooperia curticei = Cooperia curticei test (COOPCU); assay type: in vivo
Experimental: Cooperia curticei Test (COOPCU)
as §1
To produce a suitable preparation of active compound, 10 mg of active compound are mixed with 0.5 ml of dimethyl sulphoxide, and the concentrate is diluted with Ringer solution to the desired concentration.
Vessels containing the active compound preparation of the desired concentration are populated with about 40 nematode larvae (Cooperia curticei).
After 5 days, the kill in % is determined 100% means that all of the larvae have been killed; 0% means that none of the larvae have been killed.

Ctenocephalides felis = Ctenocephalides felis oral test (CTECFE); assay type: in vivo; details: application rate 100 ppm in citrated cattle blood; adult fleas; after 2 days
Experimental: Ctenocephalides felis—Oral Test (CTECFE)
Solvent: 1 part by weight of dimethyl sulphoxide
To produce a suitable preparation of active compound, 10 mg of active compound are mixed with 0.5 ml of dimethyl sulphoxide. A portion of the concentrate is diluted with citrated cattle blood, and the desired concentration is prepared.
About 20 unfed adult fleas (Ctenocephalides felis) are placed into a chamber which is closed at the top and bottom with gauze. A metal cylinder whose bottom end is closed with a parafilm is placed onto the chamber. The cylinder contains the blood/active compound preparation, which can be imbibed by the fleas through the Parafilm membrane.
After 2 days, the kill in % is determined 100% means that all fleas have been killed; 0% means that none of the fleas have been killed.

Boophilus microplus = Boophilus microplus test (DIP); assay type: in vivo; details: application rate 100 ppm, after 7 days by laying of fertile eggs, 100% = no fertile eggs
Experimental: Boophilus microplus Test (DIP)
Test animals: adult engorged Boophilus microplus females of the SP-resistant Parkhurst strain
as §1
10 mg of active compound are dissolved in 0.5 ml of dimethyl sulphoxide. For the purpose of preparing a suitable formulation, the active compound solution is diluted with water to the concentration desired in each case.
This active compound preparation is pipetted into tubes. 8-10 ticks are transferred into a further tube with holes. The tube is immersed into the active compound formulation, and all ticks are completely wetted. After the liquid has run out, the ticks are transferred onto filter discs in plastic dishes and stored in a climate-controlled room.
The activity is assessed after 7 days by laying of fertile eggs. Eggs whose fertility is not visible from the outside are stored in a climate-controlled cabinet until the larvae hatch. An efficacy of 100% means that none of the ticks has laid any fertile eggs.

spider mites = assay: spider mite test, efficacy in % after 6 days; assay type: in vivo; details: 100% = all spider mites killed, 0% = none killed
Experimental: After 6 days, the efficacy in % is determined. 100% means that all of the spider mites have been killed; 0% means that none of the spider mites have been killed.

Meloidogyne incognita = Meloidogyne incognita test (MELGIN); assay type: in vivo; details: Meloidogyne incognita, 336 h; application rate 20 ppm; lettuce in sand; after 14 days; read-out: nematicidal effect (formation of galls)
Experimental: Meloidogyne incognita Test (MELGIN)
Solvent: 125.0 parts by weight of acetone
To prepare a suitable active compound preparation, 1 part by weight of active compound is mixed with the stated amount of solvent and the concentrate is diluted with water to the desired concentration.
Vessels are filled with sand, active compound solution, an egg/larvae suspension of the root-knot nematode (Meloidogyne incognita) and lettuce seeds. The lettuce seeds germinate and the plants develop. On the roots, galls are formed.
After 14 days, the nematicidal effect in % is determined by the formation of galls. 100% means that no galls have been found; 0% means that the number of galls on the treated plants corresponds to the untreated control.

Spodoptera frugiperda = Spodoptera frugiperda spray test (SPODFR); assay type: in vivo; details: caterpillars on maize leaf discs, after 7 days
Experimental: Spodoptera frugiperda Spray Test (SPODFR)
as §2, §3, §4
Leaf discs of maize (Zea mays) are sprayed with an active compound formulation of the desired concentration and, after drying, populated with caterpillars of the armyworm (Spodoptera frugiperda).
After 7 days, the efficacy in % is determined. 100% means that all of the caterpillars have been killed; 0% means that none of the caterpillars have been killed.

Structure (SMILES): O=C(Nc1ccn(-c2ccccc2Cl)n1)c1c(F)cccc1Cl [Compound I-1-37]
log P [1]: 2.84 | efficacy (kill) (Lucilia cuprina larvae): 90%

Structure (SMILES): O=C(Nc1ccn(-c2cccc(F)c2F)n1)c1ccccc1Br [Compound I-1-63, 2-Bromo-N-[1-(2,3-difluorophenyl)-1H-pyrazol-3-yl]benzamide]
chromatographic logP [1]: 2.97 | pest or weed control at 500 g/ha (Phaedon cochleariae): 100% | efficacy (Myzus persicae; application rate 500 g/ha): 90% | pest or weed control at 20 ppm (Cooperia curticei; Cooperia curticei, 120 h, application rate 20 ppm, nematode larvae, after 5 days, read-out: efficacy (kill)): 90% | efficacy (kill) (Lucilia cuprina larvae): 80%

Structure (SMILES): CS(=O)(=O)c1ccccc1C(=O)Nc1ccn(-c2c(F)cccc2F)n1 [Compound I-1-80]
log P [1]: 1.95 | efficacy (Myzus persicae; application rate 500 g/ha): 90%

Structure (SMILES): O=C(Nc1ccn(-c2c(F)cccc2F)c1)c1ccccc1C(F)(F)F [Compound I-3-1, N-[1-(2,6-Difluorophenyl)-1H-pyrrol-3-yl]-2-(trifluoromethyl)benzamide]
chromatographic logP [1]: 2.96 | pest or weed control at 500 g/ha (Phaedon cochleariae): 100% | pest or weed control at 20 ppm (Cooperia curticei; Cooperia curticei, 120 h, read-out: efficacy (kill)): 100% | efficacy (kill) (Lucilia cuprina larvae): 80% | pest or weed control at 20 ppm (Meloidogyne incognita): 90%

Structure (SMILES): O=C(Nc1ccn(-c2c(F)cccc2F)n1)c1ccccc1Br [Compound I-1-82]
log P [1]: 2.59 | efficacy (Boophilus microplus): 80% | efficacy (kill) (Lucilia cuprina larvae): 95%

Structure (SMILES): O=C(Nc1ccn(-c2ncccc2F)n1)c1ccccc1I [Compound I-1-131]
efficacy (kill) (Ctenocephalides felis): 90% | log P [1]: 2.22

Structure (SMILES): O=C(Nc1ccn(-c2cc(Cl)ccc2Cl)n1)c1ccccc1Cl [Compound I-1-118]
efficacy (Spodoptera frugiperda; application rate 100 g/ha): 83% | log P [1]: 3.36

Structure (SMILES): O=C(Nc1nn(-c2ccccc2Cl)cc1Br)c1ccccc1Cl [Compound I-1-29]
efficacy (Spodoptera frugiperda; application rate 500 g/ha): 83% | log P [1]: 2.99

Structure (SMILES): N#CCN(C(=O)c1ccccc1C(F)(F)F)c1ccn(-c2c(F)cccc2F)n1 [Compound I-1-259]
efficacy (Spodoptera frugiperda; application rate 500 g/ha): 100% | log P [1]: 2.90

Structure (SMILES): O=C(Nc1ccn(-c2ccccc2Br)n1)c1ccccc1Cl [Compound I-1-51]
log P [1]: 2.83 | efficacy (kill) (Lucilia cuprina larvae): 90%

Structure (SMILES): O=C(Nc1nn(-c2ccccc2Cl)cc1Cl)c1ccccc1I [Compound I-1-34]
efficacy (Spodoptera frugiperda; application rate 500 g/ha): 83% | log P [1]: 3.10

Structure (SMILES): N#CCN(C(=O)c1ccccc1Cl)c1ccn(-c2ccccc2Cl)n1 [Compound I-1-25]
log P [1]: 3.04 | efficacy (Myzus persicae; application rate 500 g/ha): 80%

Structure (SMILES): O=C(Nc1ccn(-c2cncc(F)n2)n1)c1c(F)cccc1F [Compound I-1-403]
efficacy (Spodoptera frugiperda; application rate 500 g/ha): 100% | log P [1]: 2.32

Structure (SMILES): O=C(Nc1ccn(-c2ccccc2Cl)n1)c1ccccc1Cl [Compound I-1-20, 2-Chloro-N-[1-(2-chlorophenyl)-1H-pyrazol-3-yl]benzamide]
chromatographic logP [1]: 2.8 | pest or weed control at 500 g/ha (Phaedon cochleariae): 100% | pest or weed control at 100 ppm (Cooperia curticei; Cooperia curticei, 120 h, application rate 100 ppm, nematode larvae, after 5 days, read-out: efficacy (kill)): 90% | efficacy (kill) (Lucilia cuprina larvae): 90% | pest or weed control at 20 ppm (Meloidogyne incognita): 90%

Structure (SMILES): O=C(Nc1ccn(-c2ccccc2Cl)n1)c1ccccc1OC(F)(F)F [Compound I-1-18]
log P [1]: 3.28 | efficacy in % (spider mites; application rate of 500 g/ha): 80%

Structure (SMILES): O=C(Nc1cnn(-c2c(F)cccc2F)n1)c1c(F)cccc1C(F)(F)F [Compound I-2-39]
log P [1]: 2.88 | efficacy (Myzus persicae; application rate 500 g/ha): 90%

Structure (SMILES): COc1ccccc1C(=O)Nc1ccn(-c2c(F)cccc2F)n1 [Compound I-1-280]
log P [1]: 2.75 | efficacy (Myzus persicae; application rate 500 g/ha): 90%

Structure (SMILES): Cc1cc(NC(=O)c2ccccc2I)nn1-c1ccccc1Cl [Compound I-1-35]
efficacy (Spodoptera frugiperda; application rate 500 g/ha): 100% | log P [1]: 2.53

Structure (SMILES): O=C(Nc1ccn(-c2ccccc2F)n1)c1ccccc1Br [Compound I-1-10]
log P [1]: 2.78 | efficacy in % (spider mites; application rate of 500 g/ha): 80%

Structure (SMILES): CC#CCN(C(=O)c1ccccc1C(F)(F)F)c1ccn(-c2c(F)cccc2F)n1 [Compound I-1-263]
log P [1]: 3.40 | efficacy in % (spider mites; application rate of 500 g/ha): 95%

Structure (SMILES): Cc1ncccc1C(=O)Nc1ccn(-c2cc(F)ccc2F)n1 [Compound I-1-69]
log P [1]: 1.53 | efficacy (kill) (Cooperia curticei; application rate 100 ppm, nematode larvae, after 5 days): 80% | efficacy (kill) (Lucilia cuprina larvae): 90%

Structure (SMILES): O=C(Nc1ccn(-c2c(F)cccc2F)n1)c1ccccc1[N+](=O)[O-] [Compound I-1-86]
log P [1]: 2.20 | efficacy (Myzus persicae; application rate 20 g/ha): 90%

Structure (SMILES): O=C(Nc1ccn(-c2ncc(F)cc2F)n1)c1ccccc1I [Compound I-1-145]
log P [1]: 2.45 | efficacy (Myzus persicae; application rate 500 g/ha): 90% | efficacy (kill) (Lucilia cuprina larvae): 90%

Continued, in another order:

log P [1]: 2.38
Structure (SMILES): O=C(Nc1cnn(-c2ncccc2Cl)n1)c1ccccc1C(F)(F)F [Compound I-2-10]
efficacy (kill) (Ctenocephalides felis): 90%

log P [1]: 2.99
Structure (SMILES): O=C(Nc1ccn(-c2ccccc2Cl)n1)c1ncccc1C(F)(F)F [Compound I-1-39]
efficacy (Boophilus microplus): 90% | efficacy in % (spider mites; application rate of 500 g/ha): 80%

log P [1]: 1.83
Structure (SMILES): O=C(Nc1ccn(-c2ncccc2F)n1)c1cccnc1C(F)(F)F [Compound I-1-133]
efficacy (Myzus persicae; application rate 500 g/ha): 90%

log P [1]: 2.44
Structure (SMILES): O=C(Nc1cnn(-c2ncccc2Cl)n1)c1ccsc1I [Compound I-2-58]
efficacy (Myzus persicae; application rate 500 g/ha): 90%

log P [1]: 2.21
Structure (SMILES): O=C(Nc1ccn(-c2ncccc2Cl)n1)c1ccccc1Cl [Compound I-1-136]
efficacy (Spodoptera frugiperda; application rate 500 g/ha): 100%

chromatographic logP [1]: 3.16
Structure (SMILES): O=C(Nc1nn(-c2ccccc2Cl)cc1I)c1ccccc1C(F)(F)F [Compound I-1-17, N-[4-Iodo-1-(2-chlorophenyl)-1H-pyrazol-3-yl]-2-(trifluoromethyl)benzamide]
efficacy (Spodoptera frugiperda; application rate 500 g/ha): 83% | pest or weed control at 500 g/ha (Phaedon cochleariae): 100%

log P [1]: 2.89
Structure (SMILES): O=C(Nc1cnn(-c2ccccc2Cl)n1)c1ccccc1Cl [Compound I-2-2]
efficacy (kill) (Lucilia cuprina larvae): 80%

log P [1]: 2.19
Structure (SMILES): O=C(Nc1ccn(-c2ccccc2Cl)n1)c1cccnc1Cl [Compound I-1-43]
efficacy in % (spider mites; application rate of 100 g/ha): 90%

log P [1]: 2.81
Structure (SMILES): O=C(Nc1cnn(-c2c(F)cccc2F)n1)c1ccccc1I [Compound I-2-41]
efficacy (Spodoptera frugiperda; application rate 500 g/ha): 100%

log P [1]: 2.96
Structure (SMILES): O=C(Nc1ccn(-c2ccccc2C(F)(F)F)n1)c1ccccc1Br [Compound I-1-186]
efficacy (kill) (Lucilia cuprina larvae): 80%
